Test system: angiotensin-converting enzyme (ACE)
Assay: HPLC with mass spectrometry and on-line bioassay unit for assessing ACE-inhibiting activity
Format: biochemical
Excerpt: The identity and the activity of the peptides and their mixtures can be determined by known methods, e.g. as described by Van Elswijk et al. J Chromatography A, 1020 (2003) 45-58, involving liquid chromatography coupled to mass spectroscopy, and on-line bioassay. […] The IC50 can be determined in vitro as described by V. Vermeirsen, J. van Camp & J. Verstraete, “Optimisation and validation of an angiotensin-converting enzyme inhibition assay for the screening of bioactive peptides”. J. Biochem. Biophys. Methods 51, 75-87 (2002).
The peptides obtained according to example I, were analysed using HPLC as described by Van Elswijk et al. J Chromatography A 1020 (2003) 45-58. The HPLC eluate was divided over a mass spectrometry for determining the peptide structure and a bioassay unit for assessing the ACE-inhibiting activity. The following peptides were identified: AVP (SEQ ID No. 25), LV (SEQ ID No. 5) and IV (SEQ ID No. 1). Another batch of the same caseinate contained the peptides KIHP (SEQ ID No. 28), KK (SEQ ID No. 73), VPYPQR (SEQ ID No. 20), and KYKVPQ (SEQ ID No. 91). Starting with other casein sources the peptides VLGPV (SEQ ID No. 10), VLPVPQK (SEQ ID No. 75), VPYPQ (SEQ ID No. 21), KK (SEQ ID No. 73), VNELSK (SEQ ID No. 76), and […] (SEQ ID No. 33) were found.
Similarly the product from example II was analysed and contained IAEKT (SEQ ID No. 57), LDIQK (SEQ ID No. 74) and LKALP (SEQ ID No. 64). Starting from other whey protein sources WPC 60 or whey protein isolate, VLGPV (SEQ ID No. 10), VLPVPQ (SEQ ID No. 18), MKGLDI (SEQ ID No. 41), LR (SEQ ID No. 44), MHIRLS (SEQ ID No. 48), IIA (SEQ ID No. 56) were identified.

[1] = product from example II (WPC 80 hydrolysate)
[2] = other whey protein sources WPC 60 or whey protein isolate
[3] = another batch of the same caseinate

Substance | identified as ACE-inhibiting peptide (other casein sources) | identified as ACE-inhibiting peptide [2] | also measured
LDIQK (listed as Bos taurus) [β-lactoglobulin-derived peptide] | – | – | identified as ACE-inhibiting peptide [1]: contained
VLPVPQK (listed as Bos taurus) | found | – | –
MHIRLS (listed as Bos taurus) | – | identified | –
LKALP (listed as Bos taurus) [β-lactoglobulin-derived peptide] | – | – | identified as ACE-inhibiting peptide [1]: contained
IAEKT (listed as Bos taurus) [β-lactoglobulin-derived peptide] | – | – | identified as ACE-inhibiting peptide [1]: contained
FFVAPFPEVFG (listed as Bos taurus) | found | – | –
VPYPQR (listed as Bos taurus) [β-casein-derived peptide] | – | – | identified as ACE-inhibiting peptide [3]: contained
MKGLDI (listed as Bos taurus) [β-lactoglobulin-derived peptide] | – | identified | –
VLPVPQ (listed as Bos taurus) | – | identified | –
IIA (listed as Bos taurus) | – | identified | –
KYKVPQ (listed as Bos taurus) | – | – | identified as ACE-inhibiting peptide [3]: contained
VPYPQ (listed as Bos taurus) [β-casein-derived peptide] | found | – | –
KIHP (listed as Bos taurus) [β-casein-derived peptide] | – | – | identified as ACE-inhibiting peptide [3]: contained
VNELSK (listed as Bos taurus) | found | – | –
VLGPV (listed as Bos taurus) [β-casein peptide] | found | identified | –
AVP | – | – | identified as ACE-inhibiting peptide (hydrolysate of example I (calcium caseinate)): identified
